Experimental findings from ChEMBL document CHEMBL5291721, “A preclinical secondary pharmacology resource illuminates target-adverse drug reaction associations of marketed drugs” (Nat Commun, 2023) are described below.

For orientation: AC50 means the concentration at which the activity in the assay is half-maximal.

Among the targets are Estrogen receptor beta (Homo sapiens, UniProt Q92731); D(1A) dopamine receptor (Homo sapiens, UniProt P21728); Substance-P receptor (Homo sapiens, UniProt P25103).
The target of experiment [1] is T1, Histamine H1 receptor (Homo sapiens, UniProt P35367). The format is functional, cell-based.
T1 sequence (P35367 whole entry): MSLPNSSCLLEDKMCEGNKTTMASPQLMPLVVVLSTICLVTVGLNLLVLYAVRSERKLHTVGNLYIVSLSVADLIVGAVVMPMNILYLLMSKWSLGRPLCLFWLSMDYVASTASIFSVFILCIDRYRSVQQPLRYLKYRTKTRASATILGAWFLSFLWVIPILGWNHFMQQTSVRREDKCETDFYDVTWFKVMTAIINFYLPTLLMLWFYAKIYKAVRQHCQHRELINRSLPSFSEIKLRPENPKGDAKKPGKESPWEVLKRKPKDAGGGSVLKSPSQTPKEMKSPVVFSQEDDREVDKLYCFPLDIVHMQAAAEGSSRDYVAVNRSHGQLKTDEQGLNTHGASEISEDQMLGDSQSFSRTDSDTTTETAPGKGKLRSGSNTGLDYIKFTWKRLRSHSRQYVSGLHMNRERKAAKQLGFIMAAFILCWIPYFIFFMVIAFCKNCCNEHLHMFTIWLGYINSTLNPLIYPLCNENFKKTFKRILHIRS
Experiment [2] has as its target T1, Histamine H1 receptor. The format is functional, cell-based. The source holds these as a separate data set.
The target in experiment [3] is Gamma-aminobutyric acid receptor subunit alpha-1/alpha-2/beta-2/gamma-2 (Homo sapiens, UniProt P14867+P18507+P47869+P47870). The format is functional, cell-based.
In experiment [4] the target is Gamma-aminobutyric acid type B receptor subunit 1 (Homo sapiens, UniProt Q9UBS5).
Gamma-aminobutyric acid type B receptor subunit 1, sequence (Q9UBS5 whole entry): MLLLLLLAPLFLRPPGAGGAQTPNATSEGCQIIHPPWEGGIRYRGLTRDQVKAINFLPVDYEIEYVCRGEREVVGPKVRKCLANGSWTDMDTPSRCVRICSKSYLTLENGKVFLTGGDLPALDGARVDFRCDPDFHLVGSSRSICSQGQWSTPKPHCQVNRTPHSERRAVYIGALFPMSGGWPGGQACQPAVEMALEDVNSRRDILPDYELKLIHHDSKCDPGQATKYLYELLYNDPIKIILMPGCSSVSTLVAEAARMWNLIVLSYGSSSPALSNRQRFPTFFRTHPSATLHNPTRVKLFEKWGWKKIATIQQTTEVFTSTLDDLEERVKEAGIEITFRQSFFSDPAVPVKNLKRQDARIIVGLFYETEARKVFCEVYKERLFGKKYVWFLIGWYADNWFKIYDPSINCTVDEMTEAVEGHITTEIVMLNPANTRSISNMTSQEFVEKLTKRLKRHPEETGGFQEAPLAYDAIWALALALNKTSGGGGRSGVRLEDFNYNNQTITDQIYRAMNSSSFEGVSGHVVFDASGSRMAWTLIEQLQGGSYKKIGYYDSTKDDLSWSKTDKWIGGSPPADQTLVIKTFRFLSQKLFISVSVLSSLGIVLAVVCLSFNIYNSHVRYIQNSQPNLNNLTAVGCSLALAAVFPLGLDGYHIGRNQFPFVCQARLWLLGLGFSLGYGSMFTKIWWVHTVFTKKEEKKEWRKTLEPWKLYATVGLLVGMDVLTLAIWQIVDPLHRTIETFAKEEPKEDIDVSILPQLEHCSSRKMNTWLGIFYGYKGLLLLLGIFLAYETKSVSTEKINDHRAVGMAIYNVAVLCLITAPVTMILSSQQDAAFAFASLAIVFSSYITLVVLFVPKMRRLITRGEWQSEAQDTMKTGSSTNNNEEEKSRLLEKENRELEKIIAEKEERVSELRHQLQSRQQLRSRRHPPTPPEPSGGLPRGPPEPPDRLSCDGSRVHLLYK
Experiment [5] concerns the target T2, Peroxisome proliferator-activated receptor gamma (Homo sapiens, UniProt P37231).
T2 sequence (P37231 whole entry): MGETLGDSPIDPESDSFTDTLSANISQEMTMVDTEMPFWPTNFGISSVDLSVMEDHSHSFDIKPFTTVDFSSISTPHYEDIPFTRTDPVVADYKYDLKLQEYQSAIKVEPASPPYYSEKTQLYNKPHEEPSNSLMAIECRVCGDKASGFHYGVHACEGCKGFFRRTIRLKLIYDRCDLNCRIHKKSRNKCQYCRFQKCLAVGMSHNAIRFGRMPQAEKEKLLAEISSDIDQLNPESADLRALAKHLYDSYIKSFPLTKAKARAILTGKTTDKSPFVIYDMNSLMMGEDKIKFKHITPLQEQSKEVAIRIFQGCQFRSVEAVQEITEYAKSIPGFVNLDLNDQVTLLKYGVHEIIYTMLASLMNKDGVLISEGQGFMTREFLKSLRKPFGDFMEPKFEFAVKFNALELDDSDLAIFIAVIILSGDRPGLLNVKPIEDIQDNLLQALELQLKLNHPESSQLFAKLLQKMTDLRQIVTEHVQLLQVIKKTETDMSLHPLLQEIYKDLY
The format is functional.

The target in experiment [6] is T2, Peroxisome proliferator-activated receptor gamma. The format is functional. The source holds these as a separate data set.
For experiment [7], the target named is Sodium channel protein type 5 subunit alpha (Homo sapiens, UniProt Q14524). The format is functional, cell-based.
The target of experiment [8] is Voltage-dependent L-type calcium channel subunit alpha-1C (Homo sapiens, UniProt Q13936). It counts as functional, cell-based.
Voltage-dependent L-type calcium channel subunit alpha-1C, sequence (Q13936 whole entry): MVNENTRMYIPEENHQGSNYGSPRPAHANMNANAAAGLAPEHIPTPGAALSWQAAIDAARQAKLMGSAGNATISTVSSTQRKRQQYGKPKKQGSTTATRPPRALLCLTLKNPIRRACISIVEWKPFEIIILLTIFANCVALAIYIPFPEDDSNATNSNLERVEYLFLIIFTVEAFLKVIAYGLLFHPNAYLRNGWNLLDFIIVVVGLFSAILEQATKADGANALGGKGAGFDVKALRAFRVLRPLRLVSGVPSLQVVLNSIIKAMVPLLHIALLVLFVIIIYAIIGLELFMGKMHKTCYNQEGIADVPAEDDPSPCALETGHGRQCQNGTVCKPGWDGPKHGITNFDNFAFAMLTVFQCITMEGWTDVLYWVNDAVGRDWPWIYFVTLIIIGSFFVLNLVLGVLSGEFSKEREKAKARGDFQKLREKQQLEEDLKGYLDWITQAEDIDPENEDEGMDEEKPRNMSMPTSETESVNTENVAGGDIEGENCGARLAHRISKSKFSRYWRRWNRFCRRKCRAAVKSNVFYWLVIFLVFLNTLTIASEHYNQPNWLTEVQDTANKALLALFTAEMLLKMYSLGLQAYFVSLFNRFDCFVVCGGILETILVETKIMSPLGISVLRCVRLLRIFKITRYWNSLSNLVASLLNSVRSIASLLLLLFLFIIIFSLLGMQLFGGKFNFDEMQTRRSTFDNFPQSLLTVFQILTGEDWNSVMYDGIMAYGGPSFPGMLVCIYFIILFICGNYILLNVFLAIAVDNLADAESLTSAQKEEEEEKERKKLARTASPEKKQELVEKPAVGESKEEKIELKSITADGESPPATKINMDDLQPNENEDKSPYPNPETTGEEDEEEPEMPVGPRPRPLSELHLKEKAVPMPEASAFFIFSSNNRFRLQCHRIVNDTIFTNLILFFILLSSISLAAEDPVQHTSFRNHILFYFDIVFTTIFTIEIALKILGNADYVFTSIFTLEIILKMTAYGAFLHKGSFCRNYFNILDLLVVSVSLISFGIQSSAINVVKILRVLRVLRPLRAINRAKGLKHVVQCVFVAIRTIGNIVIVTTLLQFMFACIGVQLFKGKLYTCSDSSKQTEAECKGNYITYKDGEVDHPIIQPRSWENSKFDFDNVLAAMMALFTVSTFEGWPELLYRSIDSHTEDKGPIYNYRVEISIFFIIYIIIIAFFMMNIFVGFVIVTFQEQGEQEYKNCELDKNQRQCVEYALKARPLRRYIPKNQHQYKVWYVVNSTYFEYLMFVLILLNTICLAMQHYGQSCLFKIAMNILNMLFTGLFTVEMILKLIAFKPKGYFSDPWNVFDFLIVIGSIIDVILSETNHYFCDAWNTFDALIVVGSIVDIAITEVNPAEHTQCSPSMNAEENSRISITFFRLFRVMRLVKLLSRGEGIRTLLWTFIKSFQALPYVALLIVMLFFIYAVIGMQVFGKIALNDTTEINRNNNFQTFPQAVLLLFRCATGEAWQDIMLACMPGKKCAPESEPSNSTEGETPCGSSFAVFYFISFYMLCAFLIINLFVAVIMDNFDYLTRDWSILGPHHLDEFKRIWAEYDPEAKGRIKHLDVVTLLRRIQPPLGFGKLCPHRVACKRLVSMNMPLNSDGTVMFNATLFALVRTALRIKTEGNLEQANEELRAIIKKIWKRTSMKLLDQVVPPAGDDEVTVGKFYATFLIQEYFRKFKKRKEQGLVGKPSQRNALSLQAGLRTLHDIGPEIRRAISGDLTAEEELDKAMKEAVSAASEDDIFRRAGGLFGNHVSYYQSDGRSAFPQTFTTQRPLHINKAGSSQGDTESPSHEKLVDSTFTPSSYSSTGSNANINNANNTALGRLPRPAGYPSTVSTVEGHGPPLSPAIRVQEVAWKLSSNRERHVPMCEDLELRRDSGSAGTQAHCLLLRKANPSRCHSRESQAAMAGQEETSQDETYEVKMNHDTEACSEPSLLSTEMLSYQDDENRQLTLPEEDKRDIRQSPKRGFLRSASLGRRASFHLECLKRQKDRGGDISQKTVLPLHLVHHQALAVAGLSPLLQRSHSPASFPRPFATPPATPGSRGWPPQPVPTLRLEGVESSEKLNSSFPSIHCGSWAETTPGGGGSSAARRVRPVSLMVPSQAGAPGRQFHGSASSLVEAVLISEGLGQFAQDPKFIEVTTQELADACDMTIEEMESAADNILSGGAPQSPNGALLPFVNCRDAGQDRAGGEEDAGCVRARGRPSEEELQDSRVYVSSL
The next experiment concerns the target Cannabinoid receptor 1 (Homo sapiens, UniProt P21554). It counts as functional.
The target of the next experiment is T3, D(4) dopamine receptor (Homo sapiens, UniProt P21917).
T3 sequence (P21917 whole entry): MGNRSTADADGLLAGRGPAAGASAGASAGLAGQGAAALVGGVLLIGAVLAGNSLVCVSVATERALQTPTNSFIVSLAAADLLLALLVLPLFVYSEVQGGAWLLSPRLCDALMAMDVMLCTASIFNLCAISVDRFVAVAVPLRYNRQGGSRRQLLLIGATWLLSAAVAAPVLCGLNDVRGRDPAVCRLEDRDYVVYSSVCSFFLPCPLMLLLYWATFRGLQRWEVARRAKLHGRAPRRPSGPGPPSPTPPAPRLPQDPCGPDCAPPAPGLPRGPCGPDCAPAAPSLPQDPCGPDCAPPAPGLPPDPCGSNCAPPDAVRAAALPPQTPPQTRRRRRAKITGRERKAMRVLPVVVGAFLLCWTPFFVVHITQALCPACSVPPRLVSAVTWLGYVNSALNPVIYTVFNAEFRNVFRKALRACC

Experiment [9] has as its target T4, Alpha-1A adrenergic receptor (Homo sapiens, UniProt P35348).
T4 sequence (P35348 whole entry): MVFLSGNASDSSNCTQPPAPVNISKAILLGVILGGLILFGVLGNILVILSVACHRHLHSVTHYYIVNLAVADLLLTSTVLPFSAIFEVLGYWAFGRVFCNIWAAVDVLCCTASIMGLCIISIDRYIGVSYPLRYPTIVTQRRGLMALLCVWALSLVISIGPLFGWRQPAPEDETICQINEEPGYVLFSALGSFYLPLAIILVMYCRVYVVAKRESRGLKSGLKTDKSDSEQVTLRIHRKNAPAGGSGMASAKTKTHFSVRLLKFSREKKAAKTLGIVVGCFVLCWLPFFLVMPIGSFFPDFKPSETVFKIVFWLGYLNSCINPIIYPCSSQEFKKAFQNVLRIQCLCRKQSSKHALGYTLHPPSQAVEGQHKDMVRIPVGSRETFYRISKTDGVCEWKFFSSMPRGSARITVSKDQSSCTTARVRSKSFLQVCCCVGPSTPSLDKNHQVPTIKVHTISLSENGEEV

Experiment [10] deals with 5-hydroxytryptamine receptor 6 (Homo sapiens, UniProt P50406).
5-hydroxytryptamine receptor 6, sequence (P50406 whole entry): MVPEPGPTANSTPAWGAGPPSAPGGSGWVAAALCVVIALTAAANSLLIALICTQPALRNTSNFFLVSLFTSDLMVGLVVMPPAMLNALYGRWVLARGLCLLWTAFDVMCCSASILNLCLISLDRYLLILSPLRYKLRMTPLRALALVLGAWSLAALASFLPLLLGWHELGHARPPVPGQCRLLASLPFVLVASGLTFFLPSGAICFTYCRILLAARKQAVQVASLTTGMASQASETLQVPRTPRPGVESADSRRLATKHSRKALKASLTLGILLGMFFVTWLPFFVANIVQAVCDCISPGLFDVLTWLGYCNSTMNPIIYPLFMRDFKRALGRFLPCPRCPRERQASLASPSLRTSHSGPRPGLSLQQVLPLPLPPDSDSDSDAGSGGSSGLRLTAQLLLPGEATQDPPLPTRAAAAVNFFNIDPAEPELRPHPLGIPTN
Experiment [11] has as its target 5-hydroxytryptamine receptor 7 (Homo sapiens, UniProt P34969).
Experiment [12] addresses T5, Muscarinic acetylcholine receptor M5 (Homo sapiens, UniProt P08912).
T5 sequence (P08912 whole entry): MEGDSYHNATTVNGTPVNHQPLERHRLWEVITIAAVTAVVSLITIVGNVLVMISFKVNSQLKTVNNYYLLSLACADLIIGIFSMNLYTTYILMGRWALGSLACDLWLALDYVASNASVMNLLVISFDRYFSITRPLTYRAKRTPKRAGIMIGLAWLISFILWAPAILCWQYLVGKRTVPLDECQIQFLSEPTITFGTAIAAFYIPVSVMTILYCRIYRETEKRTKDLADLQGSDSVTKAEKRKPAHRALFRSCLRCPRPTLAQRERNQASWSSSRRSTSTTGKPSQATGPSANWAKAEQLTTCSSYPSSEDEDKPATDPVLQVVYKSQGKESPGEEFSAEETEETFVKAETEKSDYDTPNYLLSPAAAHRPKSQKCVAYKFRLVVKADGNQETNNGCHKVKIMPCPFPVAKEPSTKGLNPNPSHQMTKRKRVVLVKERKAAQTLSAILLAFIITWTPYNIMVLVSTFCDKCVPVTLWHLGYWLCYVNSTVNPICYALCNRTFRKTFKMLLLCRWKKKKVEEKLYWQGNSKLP

The structures appear in SMILES notation.
Further: assay procedure not described here.

D(1A) dopamine receptor, sequence (P21728 whole entry): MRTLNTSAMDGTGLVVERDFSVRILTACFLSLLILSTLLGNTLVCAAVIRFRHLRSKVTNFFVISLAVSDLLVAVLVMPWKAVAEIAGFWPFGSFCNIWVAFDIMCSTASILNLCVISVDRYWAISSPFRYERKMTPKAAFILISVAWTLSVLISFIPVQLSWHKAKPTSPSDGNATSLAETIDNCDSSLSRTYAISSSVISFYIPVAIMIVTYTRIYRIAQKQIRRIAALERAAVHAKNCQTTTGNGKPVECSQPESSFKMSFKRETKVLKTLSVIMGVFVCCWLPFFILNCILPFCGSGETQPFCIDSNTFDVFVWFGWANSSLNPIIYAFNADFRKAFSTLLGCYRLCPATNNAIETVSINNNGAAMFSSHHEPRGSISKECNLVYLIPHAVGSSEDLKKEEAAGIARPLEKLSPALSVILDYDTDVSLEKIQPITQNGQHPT
5-hydroxytryptamine receptor 7, sequence (P34969 whole entry): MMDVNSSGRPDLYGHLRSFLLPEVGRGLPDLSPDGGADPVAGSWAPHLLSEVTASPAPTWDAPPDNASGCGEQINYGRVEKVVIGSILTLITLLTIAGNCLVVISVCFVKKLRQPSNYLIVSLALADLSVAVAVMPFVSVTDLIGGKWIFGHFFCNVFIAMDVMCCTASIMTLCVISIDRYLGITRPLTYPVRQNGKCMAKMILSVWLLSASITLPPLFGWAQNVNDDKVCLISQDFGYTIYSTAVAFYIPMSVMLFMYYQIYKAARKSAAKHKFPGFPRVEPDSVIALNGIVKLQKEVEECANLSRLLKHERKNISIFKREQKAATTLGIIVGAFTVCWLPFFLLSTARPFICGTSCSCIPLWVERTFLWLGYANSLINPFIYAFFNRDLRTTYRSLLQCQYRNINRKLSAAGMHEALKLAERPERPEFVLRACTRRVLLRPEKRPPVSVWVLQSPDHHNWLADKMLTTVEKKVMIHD

As to `C=C1CC[C@@]2(O)[C@H]3Cc4ccc(O)c5c4[C@@]2(CCN3CC2CC2)[C@H]1O5`, the concentration at half-maximal activity (AC50) (at Histamine H1 receptor [1]; on Histamine H1 receptor [2]; in [3]) was more than 30 µM in each case.

With `Nc1ncnc2c1ncn2[C@@H]1O[C@H](COP(=O)(O)O)[C@@H](O)[C@H]1O` [ADENOSINE PHOSPHATE], the AC50 (on Histamine H1 receptor [1]; at Histamine H1 receptor [2]; in [3]) was more than 30 µM in each case.

`CN1CCc2cccc3c2[C@H]1Cc1ccc(O)c(O)c1-3` [APOMORPHINE] had an AC50 at Estrogen receptor beta of more than 30 µM.

Take `CC(C)c1c(C(=O)Nc2ccccc2)c(-c2ccccc2)c(-c2ccc(F)cc2)n1CC[C@@H](O)C[C@@H](O)CC(=O)O` [ATORVASTATIN]: the AC50 in experiment [4] is more than 10 µM.

Take `NC(CO)C(=O)NNCc1ccc(O)c(O)c1O` (configuration not stated) [BENSERAZIDE]: the concentration at half-maximal activity (AC50) at D(1A) dopamine receptor is more than 10 µM; at Histamine H1 receptor [1], more than 30 µM; on Histamine H1 receptor [2], more than 30 µM.

As for `CCCCCOC(=O)Nc1nc(=O)n([C@@H]2O[C@H](C)[C@@H](O)[C@H]2O)cc1F` [CAPECITABINE], the AC50 in experiment [5], in [6] and in experiment [3] was more than 30 µM each time.

As for `CC(C)(Oc1ccc(C2CC2(Cl)Cl)cc1)C(=O)O` (configuration not stated) [CIPROFIBRATE], the AC50 in [5] and in experiment [6] was more than 30 µM throughout.

Take `[H]/N=C(/N)c1ccc(NCc2nc3cc(C(=O)N(CCC(=O)O)c4ccccn4)ccc3n2C)cc1` [DABIGATRAN]: the AC50 in experiment [5], in experiment [7], in experiment [6] and in experiment [3] was more than 30 µM throughout.

Turning to `CCCCOc1cc(C(=O)NCCN(CC)CC)c2ccccc2n1` [DIBUCAINE], the values for the AC50 in experiment [8] and in experiment [7] were 22 µM and 1.8 µM, respectively.

For `CCNC(C)Cc1cccc(C(F)(F)F)c1` (configuration not stated) [FENFLURAMINE], the AC50 (in experiment [4]; at Substance-P receptor) was more than 10 µM in each case.

As to `O=C1CN=C(c2ccccc2)c2cc(Cl)ccc2N1CC(F)(F)F` [HALAZEPAM], the half-maximal activity concentration (AC50) (in experiment [5]; on Histamine H1 receptor [1]; at Histamine H1 receptor [2]; in experiment [6]; in experiment [3]) was more than 30 µM throughout.

Turning to `CCCCCN(C)CCC(O)(P(=O)(O)O)P(=O)(O)O` [IBANDRONIC ACID], the AC50 on Estrogen receptor beta was more than 30 µM; at Cannabinoid receptor 1 it was more than 10 µM; on D(1A) dopamine receptor it was more than 10 µM; on D(4) dopamine receptor, more than 10 µM; in experiment [9], more than 10 µM; in experiment [10], more than 10 µM. The AC50 (in experiment [11]; on Substance-P receptor) was more than 10 µM each time.

In the case of `COC(=O)C1=C(C)NC(C)=C(C(=O)OC(C)C)C1c1cccc2nonc12` (configuration not stated) [ISRADIPINE], the AC50 in experiment [7] was 2.98 µM.

In the case of `CC/C=C\C/C=C\C/C=C\CCCCCCCC(=O)O` [LINOLENIC ACID], the AC50 (at Histamine H1 receptor [1]; on Histamine H1 receptor [2]; in experiment [3]) was more than 30 µM throughout.

For the compound `Cc1cccc(C)c1NC(=O)C1CCCCN1C` (configuration not stated) [MEPIVACAINE], the AC50 in experiment [5] and in [6] was more than 30 µM throughout.

Take `C[C@H]1C[C@@H]2[C@H]([C@@H](O)C[C@@]3(C)[C@H]2CC[C@]3(O)C(=O)COC(=O)CCC(=O)O)[C@@]2(C)C=CC(=O)C=C12` [METHYLPREDNISOLONE HEMISUCCINATE]: the AC50 (in experiment [5]; on Histamine H1 receptor [1]; on Histamine H1 receptor [2]; in [6]; in experiment [3]) was more than 30 µM in each case.

As to `CCCCC(C)(O)C/C=C/[C@H]1[C@H](O)CC(=O)[C@@H]1CCCCCCC(=O)OC` (some centres not stated) [MISOPROSTOL], the AC50 (at Histamine H1 receptor [1]; at Histamine H1 receptor [2]; in [3]) was more than 30 µM throughout.

As for `CCCCCCC(C)(C)c1cc(O)c2c(c1)OC(C)(C)C1CCC(=O)CC21` (configuration not stated) [NABILONE], the AC50 (in experiment [5]; at Histamine H1 receptor [1]; on Histamine H1 receptor [2]; in experiment [6]; in experiment [3]) was more than 30 µM throughout.

Regarding `O=C(O)CCCc1ccccc1` [PHENYLBUTANOIC ACID], the AC50 at Estrogen receptor beta is more than 30 µM; at Cannabinoid receptor 1, more than 10 µM; in experiment [12] it was more than 10 µM; on D(4) dopamine receptor, more than 10 µM; in [9], more than 10 µM; in experiment [4], more than 10 µM. Further, the AC50 (in experiment [10]; in [11]; at Substance-P receptor) was more than 10 µM in each case.

With `CC(Cc1ccccc1)NCCC(c1ccccc1)c1ccccc1` (configuration not stated) [PRENYLAMINE], the AC50 in experiment [8] came to 47 µM; in experiment [7] it was 7.1 µM.

For the compound `CCCOc1ccc(C(=O)OCCN(CC)CC)cc1N` [PROPARACAINE], the AC50 in experiment [5] and in [6] was more than 30 µM each time.

For the compound `Nc1nc2ccc(OC(F)(F)F)cc2s1` [RILUZOLE], the AC50 in [5] is more than 30 µM; in experiment [8] it was more than 50 µM; in [6] it was more than 30 µM; in [3], more than 30 µM.

For the compound `O=C1NCCN1CCN1CCC(c2cn(-c3ccc(F)cc3)c3ccc(Cl)cc23)CC1` [SERTINDOLE], the figures for the AC50 in experiment [8] and in [7] were more than 50 µM and 21 µM, respectively.

Regarding `Cc1c(C(=O)Nc2ccc(N3C[C@@H](C)O[C@@H](C)C3)nc2)cccc1-c1ccc(OC(F)(F)F)cc1` [SONIDEGIB], the AC50 at Estrogen receptor beta is more than 30 µM; on D(1A) dopamine receptor, more than 10 µM; on D(4) dopamine receptor, more than 10 µM; in [9] it was more than 10 µM; at Substance-P receptor it was more than 10 µM.

Turning to `COc1ccc(C(=O)N2CCN(c3ccc4c(c3)CCC(=O)N4)CC2)cc1OC` [VESNARINONE], the AC50 (at Histamine H1 receptor [1]; at Histamine H1 receptor [2]; in [3]) was more than 30 µM in each case.

As to `CN1CCN(C(=O)OC2c3nccnc3C(=O)N2c2ccc(Cl)cn2)CC1` (configuration not stated) [ZOPICLONE], the AC50 was more than 30 µM in experiment [5]; more than 30 µM on Estrogen receptor beta; more than 10 µM on Cannabinoid receptor 1; more than 10 µM on D(1A) dopamine receptor; more than 10 µM at D(4) dopamine receptor; more than 10 µM in [9]. Further, the results for the AC50 in [10], in experiment [11] and in [6] were more than 10 µM, more than 10 µM and more than 30 µM, respectively.
